Measurements taken from patent publication US5441940A, “Process for the preparation of water soluble primycin and its components and pharmaceutical compositions containing them” (Chinoin Gyogyszer es Vegyeszeti Termekek Gyara Rt., priority 1988, dated 1995).

Tests used:
[1] = Gelling of aqueous solutions (concentration-, time- and temperature-dependent); format: physicochemical; conditions: 5-10 mg/ml aqueous solution of the single component
Experimental: Water soluble primycin has a further very interesting characteristic. It has been observed that its aqueous solution spontaneously gellifies, the gelling time being dependent on the primycin content of the solution. As it appears from the curves of FIG. 1, the complete gelling of a 5-10 mg/ml aqueous primycin solution requires about 1-2 days, that of a 20-40 mg/ml primycin solution requires about 6-12 hours, whereas an aqueous primycin solution comprising more than 50 mg/ml of primycin completely gellifies even within 1-2 hours. The concentration-, time- and temperature-dependent gelling (polymerization) can be attributed presumably to the changes in orientation of the --OH groups in the molecule.
The gelling properties of the individual components of formulae (A1) and (A3) and those of the two-component mixture have also been examined. […] It can be assumed that this delay in gelling is connected with a change in conformation or with the orientation of the hydroxy groups.

Bacillus subtilis = assay: Agar diffusion test, minimum inhibitory concentration (MIC) on Bacillus subtilis; format: cell-based, Bacillus subtilis ATCC 6633; conditions: for MIC: Table II, agar diffusion test on Bacillus subtilis; for biological activity (on Bacillus subtilis): preparation examples
Experimental: Thin layer chromatography was performed on a Kieselgel 60 DC Alufolien F254 plate utilizing the upper phase of a 38:2:10:50 v/v mixture of butanol, ethanol, acetic acid and water as solvent and a mixture of vanillin and sulfuric acid at 105° C. as detecting agent. Biological evaluation was performed by agar diffusion test on Bacillus subtilis.
Agar diffusion technique was applied for the biological evaluation of primycin. As test organism Bacillus subtilis ATCC 6633 was applied.
Bacillus subtilis ATCC 6633 was cultivated on a Schaeffer medium (Nutrient Broth No. 2/oxoid) with the following composition:
The solution was heated in a pressurized vessel for 30 minutes at a pressure of 1.5 atmospheres, thereafter the pE was adjusted to 7.0-7.2 with 5-6 drops of 10N sodium hydroxide solution, 90 ml portions of the solution were poured into cultivating dishes, and the portions were supplemented with 10 ml, each, of the following solutions:
a) 236 mg (10^-3 mole) of Ca(NO3)2. 4H2 O dissolved in 100 ml of distilled water, and
b) […] (10^-5 mole) of MnCl2.4H2 O dissolved in 100 ml of distilled water.
The titrating nutrient medium was prepared as follows:
5 g of meat extract (Beef Extract Difco), 0.5 g of peptone (Bacto Peptone Difco), 1 g of Na2 HPO4 and 0.1 g of KH2 PO4 were dissolved in 100 ml of distilled water, the solution was boiled for 2 hours, and then the pH was adjusted to 8. The warm solution was filtered, allowed to cool, the filtrate was diluted with 900 ml of distilled water, and 20 g of agar (Bacto Agar Difco), dissolved in a Koch pot, were added to 1 liter of the solution. The pH of the warm solution was checked. 100 ml portions of the resulting solution were filled into storage flasks and then heat treated for 20 minutes in a pressurized vessel under a pressure of 1.5 atmospheres. […]
Solutions containing 20-50 /ug/ml of active agent were prepared from the substances to be examined [starting water insoluble primycin; water soluble primycin; a mixture of the compounds of formulae (A1) and (A3); a compound of formula (A1); a compound of formula (A3)] in water or in a 1:1:2 v/v mixture of butanol, ethanol and water, and the resulting solutions were diluted with buffered distilled water (0.15 molar phosphate buffer, pH=7.6) to concentrations of 0.05-0.1, 0.5-1.0 and 2.0 /ug/ml. […] Thereafter the diameters of the diffusive extinction zones were measured in mm, the obtained values were plotted on a semi-logarithmic scale against the concentrations of the standard serial dilutions, and the activity values were determined by extrapolation.

Water solubility = format: physicochemical; conditions: for water solubility (product containing bound NH4+ and ammonium hydrocarbonate contaminations): before repeated ion exchange chromatography, m.p. 159-161 °C

Compound	storage of aqueous solution without any observable change [1]	MIC (Bacillus subtilis) [µg/mL]	biological activity (on Bacillus subtilis) (Bacillus subtilis)	water solubility (product containing bound NH4+ and ammonium hydrocarbonate contaminations) (Water solubility)	water solubility (product containing bound NH4+ and ammonium hydrocarbonate contaminations) (Water solubility; listed as component of formula (A3)) [µg/mL]	Water solubility (Water solubility; water, listed as component of formula (A3))	biological activity (on Bacillus subtilis) (Bacillus subtilis; listed as component of formula (A1))	water solubility (in words) (Water solubility)
CCCCC1C(=O)OC(C(C)C(O)CCCNC(=N)N)C(C)C=C(C)CCCCC(O)CC(O)CC(O)CC(O)CC(O)C(OC2OC(CO)C(O)C2O)C=C(C)C(O)CCCC(O)CCCC(O)CCC(C)C1O (stereo not shown) [Compound of formula (A3)]	can be stored for days (maximum for one week) without any observable change	0.5 to 1.0	0.5-1 /ug/ml	about 5 mg/ml	2000 to 6000	about 50 mg/ml	–	–
CCCCC1C(=O)OC(C(C)C(O)CCCNC(=N)N)C(C)C=C(C)CCCCC(O)CC(O)CC(O)CC(O)CC(O)C(OC2OC(CO)C(O)C2O)C=C(C)C(O)CCCC(O)CCCC(O)CCC(C)C1O (stereo not shown) [Compound of formula (A1)]	can be stored for days (maximum for one week) without any observable change	0.03 to 0.06	–	–	–	–	0.03-0.06 /ug/ml	well soluble in water
